Test results reported in the supplement of paper PMC10307832.

Experiments:
Assay in all cases: relative viability (nuclei count vs DMSO), 5 days (fraction); higher = more cells survive
NCI-H460 = tested on: NCI-H460
Method in brief: (§1)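 Dosing by pin tool came one day after lung cancer cell lines were seeded in 1536-well plates, using either one drug or a fixed anchor-drug dose plus five library-drug doses (not always all listed) in √10 steps. After 5 days, nuclei were counted on 4× images. Relative viability is treated-well nuclei count divided by vehicle-well nuclei count, and values are medians of duplicate plates.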

NCI-H1944 = tested on: NCI-H1944
Method in brief: as §1

NCI-H1651 = tested on: NCI-H1651
Method in brief: as §1

NCI-H520 = tested on: NCI-H520
Method in brief: as §1

BEN = tested on: BEN
Method in brief: as §1

NCI-H596 = tested on: NCI-H596
Method in brief: as §1

NCI-H838 = tested on: NCI-H838
Method in brief: as §1

NCI-H2085 = tested on: NCI-H2085
Method in brief: as §1

NCI-H661 = tested on: NCI-H661
Method in brief: as §1

LOU-NH91 = tested on: LOU-NH91
Method in brief: as §1

NCI-H2126 = tested on: NCI-H2126
Method in brief: as §1

LCLC-103H = tested on: LCLC-103H
Method in brief: as §1

HARA = tested on: HARA
Method in brief: as §1

NCI-H1975 = tested on: NCI-H1975
Method in brief: as §1

NCI-H647 = tested on: NCI-H647
Method in brief: as §1

SW 900 = tested on: SW 900
Method in brief: as §1

A-427 = tested on: A-427
Method in brief: as §1

NCI-H1734 = tested on: NCI-H1734
Method in brief: as §1

NCI-H727 = tested on: NCI-H727
Method in brief: as §1

CAL-12T = tested on: CAL-12T
Method in brief: as §1

RERF-LC-KJ = tested on: RERF-LC-KJ
Method in brief: as §1

NCI-H1666 = tested on: NCI-H1666
Method in brief: as §1

ABC-1 = tested on: ABC-1
Method in brief: as §1

CN1CCN(CCOc2cc(OC3CCOCC3)c3c(Nc4c(Cl)ccc5c4OCO5)ncnc3c2)CC1 [Saracatinib] + Cc1nc(Nc2ncc(C(=O)Nc3c(C)cccc3Cl)s2)cc(N2CCN(CCO)CC2)n1 [Dasatinib] (partner 0.075 µM)
relative viability (NCI-H460; first compound 0.02 µM): 0.587 | relative viability (NCI-H460; first compound 0.2 µM): 0.418 | relative viability (NCI-H460; first compound 0.6325 µM): 0.603 | relative viability (NCI-H460; first compound 2 µM): 0.46 | relative viability (NCI-H1944; first compound 0.02 µM): 0.219 | relative viability (NCI-H1944; first compound 0.6325 µM): 0.182 | relative viability (NCI-H1944; first compound 2 µM): 0.181 | relative viability (NCI-H1651; first compound 0.02 µM): 0.565 | relative viability (NCI-H1651; first compound 0.2 µM): 0.37 | relative viability (NCI-H1651; first compound 0.6325 µM): 0.439 | relative viability (NCI-H1651; first compound 2 µM): 0.406 | relative viability (NCI-H520; first compound 0.02 µM): 0.21 | relative viability (NCI-H520; first compound 0.6325 µM): 0.194 | relative viability (NCI-H520; first compound 2 µM): 0.244 | relative viability (BEN; first compound 0.02 µM): 0.329 | relative viability (BEN; first compound 0.6325 µM): 0.373 | relative viability (BEN; first compound 2 µM): 0.418 | relative viability (NCI-H596; first compound 0.02 µM): 0.558 | relative viability (NCI-H596; first compound 0.2 µM): 0.659 | relative viability (NCI-H596; first compound 0.6325 µM): 0.607 | relative viability (NCI-H596; first compound 2 µM): 0.57 | relative viability (NCI-H838; first compound 0.02 µM): 0.274 | relative viability (NCI-H838; first compound 0.2 µM): 0.277 | relative viability (NCI-H838; first compound 0.6325 µM): 0.277 | relative viability (NCI-H838; first compound 2 µM): 0.281 | relative viability (NCI-H2085; first compound 0.02 µM): 0.286 | relative viability (NCI-H2085; first compound 0.2 µM): 0.321 | relative viability (NCI-H2085; first compound 0.6325 µM): 0.345 | relative viability (NCI-H2085; first compound 2 µM): 0.3 | relative viability (NCI-H661; first compound 0.02 µM): 0.891 | relative viability (NCI-H661; first compound 0.2 µM): 0.797 | relative viability (NCI-H661; first compound 0.6325 µM): 0.817 | relative viability (NCI-H661; first compound 2 µM): 0.528 | relative viability (LOU-NH91; first compound 0.02 µM): 0.507 | relative viability (LOU-NH91; first compound 0.2 µM): 0.429 | relative viability (LOU-NH91; first compound 0.6325 µM): 0.418 | relative viability (LOU-NH91; first compound 2 µM): 0.419 | relative viability (NCI-H2126; first compound 0.02 µM): 0.569 | relative viability (NCI-H2126; first compound 0.2 µM): 0.511 | relative viability (NCI-H2126; first compound 0.6325 µM): 0.532 | relative viability (NCI-H2126; first compound 2 µM): 0.398 | relative viability (LCLC-103H; first compound 0.02 µM): 0.475 | relative viability (LCLC-103H; first compound 0.2 µM): 0.496 | relative viability (LCLC-103H; first compound 0.6325 µM): 0.466 | relative viability (LCLC-103H; first compound 2 µM): 0.515 | relative viability (HARA; first compound 0.02 µM): 0.225 | relative viability (HARA; first compound 0.2 µM): 0.224 | relative viability (HARA; first compound 0.6325 µM): 0.272 | relative viability (HARA; first compound 2 µM): 0.23 | relative viability (NCI-H1975; first compound 0.02 µM): 0.487 | relative viability (NCI-H1975; first compound 0.2 µM): 0.343 | relative viability (NCI-H1975; first compound 0.6325 µM): 0.372 | relative viability (NCI-H1975; first compound 2 µM): 0.253 | relative viability (NCI-H647; first compound 0.02 µM): 0.246 | relative viability (NCI-H647; first compound 0.2 µM): 0.242 | relative viability (NCI-H647; first compound 0.6325 µM): 0.214 | relative viability (NCI-H647; first compound 2 µM): 0.246 | relative viability (SW 900; first compound 0.02 µM): 0.559 | relative viability (SW 900; first compound 0.2 µM): 0.549 | relative viability (SW 900; first compound 0.6325 µM): 0.548 | relative viability (SW 900; first compound 2 µM): 0.549 | relative viability (A-427; first compound 0.02 µM): 0.658 | relative viability (A-427; first compound 0.2 µM): 0.652 | relative viability (A-427; first compound 0.6325 µM): 0.691 | relative viability (A-427; first compound 2 µM): 0.777 | relative viability (NCI-H1734; first compound 0.02 µM): 0.455 | relative viability (NCI-H1734; first compound 0.6325 µM): 0.49 | relative viability (NCI-H1734; first compound 2 µM): 0.469 | relative viability (NCI-H727; first compound 0.02 µM): 0.396 | relative viability (NCI-H727; first compound 0.2 µM): 0.377 | relative viability (NCI-H727; first compound 0.6325 µM): 0.564 | relative viability (NCI-H727; first compound 2 µM): 0.356 | relative viability (CAL-12T; first compound 0.02 µM): 0.593 | relative viability (CAL-12T; first compound 0.2 µM): 0.451 | relative viability (CAL-12T; first compound 0.6325 µM): 0.47 | relative viability (CAL-12T; first compound 2 µM): 0.294 | relative viability (RERF-LC-KJ; first compound 0.02 µM): 0.883 | relative viability (RERF-LC-KJ; first compound 0.2 µM): 0.797 | relative viability (RERF-LC-KJ; first compound 0.6325 µM): 0.695 | relative viability (RERF-LC-KJ; first compound 2 µM): 0.676 | relative viability (NCI-H1666; first compound 0.02 µM): 0.772 | relative viability (NCI-H1666; first compound 0.2 µM): 0.87 | relative viability (NCI-H1666; first compound 0.6325 µM): 0.967 | relative viability (NCI-H1666; first compound 2 µM): 0.875 | relative viability (ABC-1; first compound 0.02 µM): 0.673 | relative viability (ABC-1; first compound 0.2 µM): 0.591 | relative viability (ABC-1; first compound 0.6325 µM): 0.616 | relative viability (ABC-1; first compound 2 µM): 0.514
